Experiments:
Test in all cases: KAM-matrix competition in K562 lysate;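 as to 0.001 uM KAM: median log10 fold change of treatment over DMSO control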;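 as to 0.01 uM KAM: median log10 fold change of treatment over DMSO control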;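 as to 0.1 uM KAM: median log10 fold change of treatment over DMSO control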;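 as to 1 uM KAM: median log10 fold change of treatment over DMSO control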;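 as to 10 uM KAM: median log10 fold change of treatment over DMSO control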
Assay type in all cases: binding
LIMK1 = LIMK1 (Homo sapiens, UniProt P53667);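 as to 0.001 uM KAM: median log10 fold change of treatment over DMSO control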;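 as to 0.01 uM KAM: median log10 fold change of treatment over DMSO control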;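 as to 0.1 uM KAM: median log10 fold change of treatment over DMSO control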;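 as to 1 uM KAM: median log10 fold change of treatment over DMSO control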;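 as to 10 uM KAM: median log10 fold change of treatment over DMSO control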
Method: (§1) Supplement 12953_2017_125_MOESM1_ESM.zip/MS_Supp Info.xlsx, sheet "KAM" | column: 10 uM KAM; 1 uM KAM; 0.1 uM KAM; 0.01 uM KAM; 0.001 uM KAM; RB50

MAP2K2 = molecular target: T1, MAP2K2 (Homo sapiens, UniProt P36507)
T1 construct: endogenous in cells; host or cells: K562
Method: as §1

MARK2 = molecular target: T2, MARK2 (Homo sapiens, UniProt Q7KZI7)
T2 construct: endogenous in cells; host or cells: K562
Method: as §1

CSNK2A2 = molecular target: T3, CSNK2A2 (Homo sapiens, UniProt P19784)
T3 construct: endogenous in cells; host or cells: K562
Method: as §1

KSR1 = molecular target: T4, KSR1 (Homo sapiens, UniProt Q8IVT5);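 as to 0.001 uM KAM: median log10 fold change of treatment over DMSO control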;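 as to 0.01 uM KAM: median log10 fold change of treatment over DMSO control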;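 as to 0.1 uM KAM: median log10 fold change of treatment over DMSO control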;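 as to 1 uM KAM: median log10 fold change of treatment over DMSO control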;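 as to 10 uM KAM: median log10 fold change of treatment over DMSO control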
T4 construct: endogenous in cells; host or cells: K562
T4 sequence (Q8IVT5 1-923): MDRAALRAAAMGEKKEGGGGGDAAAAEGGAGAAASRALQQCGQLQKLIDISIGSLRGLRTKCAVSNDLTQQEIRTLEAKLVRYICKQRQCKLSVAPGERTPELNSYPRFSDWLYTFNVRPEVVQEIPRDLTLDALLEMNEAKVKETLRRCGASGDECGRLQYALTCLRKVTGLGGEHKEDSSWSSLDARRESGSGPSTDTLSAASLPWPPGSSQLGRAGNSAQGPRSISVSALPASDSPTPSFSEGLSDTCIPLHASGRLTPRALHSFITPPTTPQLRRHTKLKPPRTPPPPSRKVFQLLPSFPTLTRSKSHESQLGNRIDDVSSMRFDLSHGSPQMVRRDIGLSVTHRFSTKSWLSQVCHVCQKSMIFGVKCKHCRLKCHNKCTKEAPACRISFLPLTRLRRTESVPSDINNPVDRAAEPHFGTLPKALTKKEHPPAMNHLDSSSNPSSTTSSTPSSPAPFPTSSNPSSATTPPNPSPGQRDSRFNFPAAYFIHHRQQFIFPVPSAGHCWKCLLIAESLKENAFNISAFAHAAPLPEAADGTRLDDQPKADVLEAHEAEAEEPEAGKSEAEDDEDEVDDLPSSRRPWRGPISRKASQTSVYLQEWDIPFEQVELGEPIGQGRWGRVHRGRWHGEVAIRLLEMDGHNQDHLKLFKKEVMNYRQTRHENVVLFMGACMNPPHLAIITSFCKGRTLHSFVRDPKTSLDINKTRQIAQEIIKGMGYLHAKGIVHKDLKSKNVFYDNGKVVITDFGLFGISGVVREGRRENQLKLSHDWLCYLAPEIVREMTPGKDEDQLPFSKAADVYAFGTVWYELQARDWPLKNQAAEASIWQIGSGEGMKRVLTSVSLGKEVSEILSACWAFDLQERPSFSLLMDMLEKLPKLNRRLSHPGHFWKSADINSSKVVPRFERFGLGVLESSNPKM
Method: as §1

TTK = molecular target: T5, TTK (Homo sapiens, UniProt P33981);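 as to 0.001 uM KAM: median log10 fold change of treatment over DMSO control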;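 as to 0.01 uM KAM: median log10 fold change of treatment over DMSO control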;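 as to 0.1 uM KAM: median log10 fold change of treatment over DMSO control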;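 as to 1 uM KAM: median log10 fold change of treatment over DMSO control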;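 as to 10 uM KAM: median log10 fold change of treatment over DMSO control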
T5 construct: endogenous in cells; host or cells: K562
T5 sequence (P33981 1-857): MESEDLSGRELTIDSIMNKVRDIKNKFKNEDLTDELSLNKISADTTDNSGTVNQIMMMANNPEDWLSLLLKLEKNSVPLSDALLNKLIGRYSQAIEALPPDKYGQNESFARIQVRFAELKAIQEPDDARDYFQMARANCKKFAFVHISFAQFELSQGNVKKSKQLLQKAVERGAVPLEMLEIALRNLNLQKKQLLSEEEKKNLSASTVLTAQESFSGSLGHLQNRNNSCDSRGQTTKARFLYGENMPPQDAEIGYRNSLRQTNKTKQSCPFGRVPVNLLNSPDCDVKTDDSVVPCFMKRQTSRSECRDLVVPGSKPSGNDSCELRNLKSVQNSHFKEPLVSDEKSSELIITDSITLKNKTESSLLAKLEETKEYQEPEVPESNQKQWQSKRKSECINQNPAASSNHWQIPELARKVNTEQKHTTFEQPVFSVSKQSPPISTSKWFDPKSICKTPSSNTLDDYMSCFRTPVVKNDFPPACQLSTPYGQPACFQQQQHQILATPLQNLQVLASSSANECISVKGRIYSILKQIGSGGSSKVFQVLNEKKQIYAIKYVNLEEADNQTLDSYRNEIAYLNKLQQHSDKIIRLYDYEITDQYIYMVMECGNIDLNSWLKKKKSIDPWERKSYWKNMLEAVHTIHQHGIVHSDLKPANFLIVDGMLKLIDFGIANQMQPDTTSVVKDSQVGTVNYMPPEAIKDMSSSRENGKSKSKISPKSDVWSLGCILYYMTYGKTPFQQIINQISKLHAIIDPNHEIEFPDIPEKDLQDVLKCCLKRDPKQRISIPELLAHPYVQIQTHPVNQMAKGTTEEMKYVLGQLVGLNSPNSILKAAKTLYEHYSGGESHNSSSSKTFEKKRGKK
Method: as §1

[1] = KAM 0.001-10 uM, read-out: RB50 (the source's name)
[2] = read-out: RB50 (the source's name)

Q: Which results are given for `N#CCc1ccc(Nc2nc(NCCCN)cc(Nc3cc(C4CC4)[nH]n3)n2)cc1` [KAM]?
A: IC50 (LIMK1; [1]): > 10000 nM; 0.001 uM KAM (LIMK1; relative to 0 uM KAM = 0): -0.03519; 0.01 uM KAM (LIMK1; relative to 0 uM KAM = 0): -0.04768; 0.1 uM KAM (LIMK1; relative to 0 uM KAM = 0): -0.0434; 1 uM KAM (LIMK1; relative to 0 uM KAM = 0): 0.03552; 10 uM KAM (LIMK1; relative to 0 uM KAM = 0): -0.3303; median Log10 fold change (MAP2K2; 0.001 uM KAM): -0.0579; median Log10 fold change (MAP2K2; 0.01 uM KAM): -0.04236; median Log10 fold change (MAP2K2; 0.1 uM KAM): -0.2079; median Log10 fold change (MAP2K2; 1 uM KAM): -0.4376; median Log10 fold change (MAP2K2; 10 uM KAM): -0.4638; IC50 (MAP2K2; [2]): 360 nM; median Log10 fold change (MARK2; 0.001 uM KAM): -0.02617; median Log10 fold change (MARK2; 0.01 uM KAM): -0.01928; median Log10 fold change (MARK2; 0.1 uM KAM): -0.2168; median Log10 fold change (MARK2; 1 uM KAM): -0.4361; median Log10 fold change (MARK2; 10 uM KAM): -0.5469; IC50 (MARK2; [2]): 336 nM; median Log10 fold change (CSNK2A2; 0.001 uM KAM): 0.0115; median Log10 fold change (CSNK2A2; 0.01 uM KAM): -0.003085; median Log10 fold change (CSNK2A2; 0.1 uM KAM): -0.2921; median Log10 fold change (CSNK2A2; 1 uM KAM): -0.5833; median Log10 fold change (CSNK2A2; 10 uM KAM): -0.635; IC50 (CSNK2A2; [2]): 150 nM; IC50 (KSR1; [1]): > 10000 nM; 0.001 uM KAM (KSR1; relative to 0 uM KAM = 0): -0.01848; 0.01 uM KAM (KSR1; relative to 0 uM KAM = 0): -0.01741; 0.1 uM KAM (KSR1; relative to 0 uM KAM = 0): -0.1182; 1 uM KAM (KSR1; relative to 0 uM KAM = 0): -0.1931; 10 uM KAM (KSR1; relative to 0 uM KAM = 0): -0.2362; IC50 (TTK; [1]): > 10000 nM; 0.001 uM KAM (TTK; relative to 0 uM KAM = 0): -0.02414; 0.01 uM KAM (TTK; relative to 0 uM KAM = 0): 0.009793; 0.1 uM KAM (TTK; relative to 0 uM KAM = 0): -0.08807; 1 uM KAM (TTK; relative to 0 uM KAM = 0): -0.1446; 10 uM KAM (TTK; relative to 0 uM KAM = 0): -0.2103

— PMC5513037, “Examining the influence of specificity ligands and ATP-competitive ligands on the overall effectiveness of bivalent kinase inhibitors” (Proteome Science, 2017)
